Measured values from paper PMC3056285 (Bioorganic & medicinal chemistry, 2011).

Key:
[1] = In vivo metabolite analysis in rat brain; set-up: species or system Sprague-Dawley rats; conditions: HPLC radioactivity
[2] = In vivo metabolite analysis in rat plasma; set-up: species or system Sprague-Dawley rats; conditions: HPLC radioactivity
[3] = Biodistribution of [^11C]MP-10 in rats; format: in vivo, Sprague-Dawley rats; conditions: male rats, tail vein injection
[4] = system: PDE10A; assay: MicroPET imaging studies in rhesus monkeys; format: in vivo; conditions: male rhesus monkeys
[5] = 2 min post injection of [^11C]MP-10
[6] = 20 min post injection of [^11C]MP-10
[7] = 40 min post injection of [^11C]MP-10
[8] = 60 min post injection of [^11C]MP-10

## [11CH3]n1cc(-c2ccncc2)c(-c2ccc(O)cc2)n1 [metabolite #1, 4-(1-[^11C]methyl-4-(pyridin-4-yl)-1H-pyrazol-3-yl)phenol]
[1]; [5]
  % Peak #1, Brain Tissue: 1.03%
[1]; [6]
  % Peak #1, Brain Tissue: 3.45%
[1]; [7]
  % Peak #1, Brain Tissue: 11.47%
[1]; [8]
  % Peak #1, Brain Tissue: 15.87%
[2]; [5]
  % Peak #1, Plasma: 1.23%
[2]; [6]
  % Peak #1, Plasma: 19.13%
[2]; [7]
  % Peak #1, Plasma: 35.19%
[2]; [8]
  % Peak #1, Plasma: 40.72%

## [11CH3]n1cc(-c2ccncc2)c(-c2ccc(OCc3ccc4ccccc4n3)cc2)n1 [[^11C]MP-10, 2-((4-(1-[^11C]methyl-4-(pyridin-4-yl)-1H-pyrazol-3-yl)phenoxy)methyl)-quinoline]
[3]; 5 min
  Biodistribution Blood: 0.123 ± 0.033 ID%/gram
  Biodistribution Cerebellum: 0.133 ± 0.023 ID%/gram
  Biodistribution Cortex: 0.133 ± 0.025 ID%/gram
  Biodistribution Fat: 0.124 ± 0.059 ID%/gram
  Biodistribution Heart: 0.264 ± 0.080 ID%/gram
  Biodistribution Hippocampus: 0.169 ± 0.049 ID%/gram
  Biodistribution Liver: 2.766 ± 0.350 ID%/gram
  Biodistribution Lung: 0.317 ± 0.037 ID%/gram
  Biodistribution Muscle: 0.093 ± 0.021 ID%/gram
  Biodistribution Striatum: 0.300 ± 0.094 ID%/gram
  Biodistribution Testes: 0.160 ± 0.048 ID%/gram
  Biodistribution Total brain: 0.162 ± 0.025 ID%/gram
[3]; 30 min
  Biodistribution Blood: 0.065 ± 0.016 ID%/gram
  Biodistribution Cerebellum: 0.036 ± 0.003 ID%/gram
  Biodistribution Cortex: 0.044 ± 0.009 ID%/gram
  Biodistribution Fat: 0.075 ± 0.020 ID%/gram
  Biodistribution Heart: 0.102 ± 0.041 ID%/gram
  Biodistribution Hippocampus: 0.050 ± 0.010 ID%/gram
  Biodistribution Kidney: 0.366 ± 0.075 ID%/gram
  Biodistribution Liver: 3.395 ± 0.448 ID%/gram
  Biodistribution Lung: 0.155 ± 0.053 ID%/gram
  Biodistribution Muscle: 0.059 ± 0.010 ID%/gram
  Biodistribution Striatum: 0.236 ± 0.035 ID%/gram
  Biodistribution Testes: 0.098 ± 0.006 ID%/gram
  Biodistribution Total brain: 0.066 ± 0.008 ID%/gram
[3]; 60 min
  Biodistribution Blood: 0.047 ± 0.012 ID%/gram
  Biodistribution Cerebellum: 0.035 ± 0.003 ID%/gram
  Biodistribution Cortex: 0.044 ± 0.014 ID%/gram
  Biodistribution Fat: 0.100 ± 0.013 ID%/gram
  Biodistribution Heart: 0.068 ± 0.023 ID%/gram
  Biodistribution Hippocampus: 0.051 ± 0.009 ID%/gram
  Biodistribution Kidney: 0.314 ± 0.060 ID%/gram
  Biodistribution Liver: 3.364 ± 0.613 ID%/gram
  Biodistribution Lung: 0.090 ± 0.012 ID%/gram
  Biodistribution Muscle: 0.039 ± 0.011 ID%/gram
  Biodistribution Striatum: 0.164 ± 0.036 ID%/gram
  Biodistribution Testes: 0.068 ± 0.021 ID%/gram
  Biodistribution Total brain: 0.056 ± 0.006 ID%/gram
[4]
  blood brain barrier penetration: can readily penetrate the blood brain barrier
